Results as given in paper PMC12530846, “Development of Novel Anticancer Pyrazolopyrimidinones Targeting Glioblastoma” (Chemmedchem, 2025).
Where two headings read alike, the source gives them in different places.

Key:
[1] = tested on: HEK293 cells; experiment: MTT cell viability assay, noncancerous HEK293 cells, 5 days treatment; type: cell-based, human; details: for IC50: 5 days treatment, 100–0 µM; for cytotoxicity / biological response in HEK293, in words: 5 days, up to 100 µM, threshold 50 µM
Method: (§1) Dose–response curves for each of the pyrazolo[1,5‐α]pyrimidinones were performed to determine the cytotoxic effect of the compounds on a cancerous, U‐251 MG cell line and a noncancerous, HEK293 cell line. The synthesized pyrazolopyrimidinones were dissolved in DMSO (Merck) to obtain a stock solution which was stored at −20 °C. […] U‐251 MG and HEK293 cells were seeded at a density of 2 x 10^3 cells per well (100 μL) in a 96‐well plate (Sarstedt) and incubated for 24 h prior to each treatment to allow for cell adhesion. The stock solution was diluted in media to working concentrations of 100, 75, 50, 25, 10, 5, and 0.1 μM. Media on the seeded cells was then replaced with the working concentrations of the compound or the controls in a 96‐well plate (100 μL). The treated plate was incubated at 37 °C in the humidified incubator for 5 days. Cell viability was assessed after 5 days using the MTT assay. Dose–response curves were then plotted relative to the positive control whereby cells were treated 20% DMSO and a negative control whereby cells were maintained in fresh DMEM.
(§2) To determine the extent of the cytotoxic effect of the pyrazolopyrimidinone on each cell line, the cell viability at each working concentration was determined via the MTT assay (Merck). The working solution of MTT used was 5 mg MTT per 1 ml of PBS diluted in 9 ml of media. After 5 days of incubation, the treatment was removed from each of the wells and replaced with 100 μL of fresh MTT solution. The plate was then incubated for 3 h at 37 °C in a humidified incubator to allow the reduction of the yellow tetrazolium salt to purple formazan crystals. After the incubation, the MTT solution was removed from the wells and replaced with 100 μL of DMSO for 15 min to dissolve the formazan crystals. The absorbance was read at 570 nm using a spectrophotometric microplate reader (Thermo Fisher Scientific).
(§3) Each of the experiments was performed at least three independent times, with a minimum of six technical replicates per experiment. Statistical analysis was carried out using GraphPad Prism version 8.0.0 (GraphPad Softwares, Inc.). Curve fitting and the IC50 values were obtained through the dose–response curves using nonlinear regression. To determine if the dose–response curves were statistically distinct and not overlapping, extra sum‐of‐squares F‐test was used, and a p‐value was obtained. The effect of compound treatment on both cell lines was statistically compared via two‐way ANOVA with Tukey's post‐test. The CytExpert (Beckman Coulter) software was used for flow cytometry analysis. Graphs represent the % dead cells whereby the total number of dead cells was divided by the total cell population. The statistical significance of the flow cytometry results was determined via one‐way analysis of variance (ANOVA) with Dunnett's T3 multiple comparison post‐test. Data is presented as the mean ± standard error of mean (SEM). Summary of results from statistical analysis reports p‐values as follows: ≥0.05 (ns), 0.01–0.05 (*), 0.001–0.01 (**), […], and <0.0001(****).

[2] = tested on: U‐251 MG cells; experiment: JC‐1 flow cytometry, mitochondrial membrane depolarization / apoptosis; type: cell-based, human; details: U‐251 MG, 5 days; for JC-1: significance of cell death, Neg Ctrl v HNT: highest non-toxic concentration; for JC-1: significance of cell death, Neg Ctrl v 50 µM: highest toxic concentration 50 µM
Method: JC‐1 dye forms aggregates in healthy mitochondria which changes the fluorescent property of the dye. […] Stock solutions of JC‐1 dye (Merck) were prepared at 1 mg/mL in DMSO and stored at −20 °C. U‐251 MG cells were seeded in 6‐well plates (Sarstedt) at a seeding density of 2 x 10^4 cells per well (1000μL) after which cells were treated with drug concentrations (highest toxic, IC50, nontoxic). After 5 days incubation, the compound and wash step with PBS was collected in falcon tubes. The cells were then harvested by trypsinization (500 μL), incubated for a period of 6 min, neutralized with media (1000 μL), and pelleted at 1200rpm for 5 min. A JC‐1 working solution of 2 μg/mL was made up in DMEM and was light protected. The cell pellet was resuspended and stained with 2 μg/mL JC‐1 dye and incubated and protected from the light for a period of 10 min. Cells were then centrifuged at 1200rpm for 5 min. The supernatant was removed, and cells were washed with 1 mL of sterile PBS. This was repeated twice. […] Cells were also treated using controls whereby the positive control used was DMEM and 20% DMSO and the negative control used was fresh media. The cells were then analyzed using flow cytometry (Beckmann Coulter, CytExpert version 2.4.0.28). Fluorescence was measured using FL1 (FITC) (530 nm) and FL2 (PE) (595 nm) channels with emission.
as §3

[3] = tested on: U‐251 MG cells; experiment: Propidium iodide (PI) flow cytometry, cell membrane permeabilization; type: cell-based, human; details: 5 days; for PI: significance of cell death, Neg Ctrl v HNT: highest non-toxic concentration
Method: Propidium iodide (PI) is a DNA staining, cell membrane impermeable dye which was used to assess cell death via loss of membrane integrity and is used to indicate necrotic or late apoptotic cells. Stock solutions of PI dye (Merck, Ireland) were prepared at 10 μg/mL in PBS and stored at −20 °C. U‐251 MG cells were seeded in 96‐well plates at a seeding density of 2 x 10^3 cells per well (100 μL), as previously stated. […] Subsequently, the compound was collected in 15 ml falcon tubes. Cells were washed with PBS (100 μL), and the PBS was collected in corresponding tubes to ensure all cells are collected. The cells were collected using 0.25% trypsin‐EDTA (50 μL) with a 6‐min incubation and media neutralization (100 μL). Each tube was centrifuged at 1200rpm for 5 min to obtain a pellet. The supernatant was removed, and the pellet was resuspended in PBS and transferred to an Eppendorf tube. Ten microliters of PI stain (2.5 μg/ml) was added to the Eppendorf tubes, and the tubes were incubated for a period of 15 min. Cells were also treated using controls whereby the positive control used was DMEM and 20% DMSO and the negative control used was fresh media. The cells were then analyzed using flow cytometry (Beckmann Coulter, CytExpert version 2.4.0.28). Fluorescence was measured using the FL2 channel. PI was detected in the red channel which is R‐phycoerythrin (PE‐Cy5). PE was used in combination with fluorescein isothiocyanate (FITC) and is excited at a wavelength of 488 nm.
as §3

[4] = tested on: U‐251 MG and HEK293 cells; experiment: Statistical comparison of dose–response in U‐251 MG versus HEK293 (selectivity, HIT criteria); type: cell-based, human; details: for Selectivity for cancer cells with IC50 < 50 [µM]‐Yes/No: HEK293 IC50 higher than U‐251 MG IC50, U‐251 MG IC50 below 50 µM; for All criteria met -Yes/No: HIT criteria and statistical testing, Table S1
[5] = tested on: U‐251 MG cells; experiment: MTT cell viability assay, U‐251 MG glioblastoma cells, 5 days treatment; type: cell-based, human; details: 5 days treatment, 100–0 µM
Method: as §1, §2, §3

[6] = tested on: U‐251 MG cells; parameters: method as in He and colleagues (2021); details: after 2 days of treatment; ref He and colleagues (2021); read-out: cytotoxicity against U‐251 MG cells (IC50); cited from earlier work

| SMILES | IC50 [1] | cytotoxicity / biological response in HEK293, in words [1] | IC50 ([1]; Homo sapiens, HEK293, 120 h) | JC-1: significance of cell death, Neg Ctrl v HNT [2] | JC-1: significance of cell death, Neg Ctrl v 50 µM [2] | cell membrane permeabilization‐dependent cell death (PI), in words [3] | PI: significance of cell death, Neg Ctrl v HNT [3] | Selectivity for cancer cells with IC50 < 50 [µM]‐Yes/No [4] | All criteria met -Yes/No [4] | IC50 [5] | IC50 ([5]; Homo sapiens, U-251, 120 h) | IC50 [6] | PI: significance of cell death, Neg Ctrl v 50 µM ([3]; highest toxic concentration 50 µM) |
| --- | --- | --- | --- | --- | --- | --- | --- | --- | --- | --- | --- | --- | --- |
| O=c1cc(-c2cc(C(F)(F)F)cc(C(F)(F)F)c2)[nH]c2cc(-c3ccc(Br)cc3)nn12 [Compound 7] | 60.9 µM | did not elicit any biological response | > 50 µM | ns (≥0.05 (ns)) | **** (<0.0001(****)) | significant cell membrane permeabilization‐dependent cell death | * (0.01 to 0.05 (*)) | Yes | Yes | 29.8 µM | < 50 µM | – | – |
| O=c1cc(-c2ccccc2)[nH]c2cc(-c3ccccc3)nn12 [Compound 15] | – | – | 15.9 µM | – | – | – | – | No | No | – | 19.9 µM | 77.7 µM | – |
| O=c1cc(-c2cc(C(F)(F)F)cc(C(F)(F)F)c2)[nH]c2cc(-c3ccc(C(F)(F)F)cc3)nn12 [Compound 9] | 54.4 µM | did not elicit any biological response | > 50 µM | ns (≥0.05 (ns)) | ** (0.001 to 0.01 (**)) | significant cell membrane permeabilization‐dependent cell death | ns (≥0.05 (ns)) | Yes | Yes | 27.5 µM | 26.8 µM | – | **** (<0.0001(****)) |
